Laboratory results as given in patent US20220204456A1, “COMPOUND FOR TREATING AUTOIMMUNE SKIN DISEASES CAUSED BY INFLAMMATION, AND USE THEREOF” (GenEros Biopharma Ltd., priority 2019, published 2022).
Entries after “also recorded” stand apart in the source; their conditions may differ.

Columns and labels:
[1] = Animal body weight in psoriasis model, Example 1; format: in vivo, BALB/c mice; details: for Statistical significance analysis of body weight: vs vehicle control group, t-test, DEX cream 70 mg external
Procedure: (§1) Female BALB/c mice (purchased from Shanghai SLACK Laboratory Animal Co., Ltd, administered at 6 weeks of age) were randomly divided into groups after adapting to the environment. Except for the normal control group, the rest of the animals received imiquimod ointment (5%) externally to induce the establishment of a psoriasis model. Specifically, the mice were shaved off same area of the back hair and applied with 62.5 mg of imiquimod ointment daily for seven consecutive days. Animals received different treatment programs, weighed daily, orally or externally applied with drugs once, and recorded with disease progression score.
(§2) Both the vehicle control group and the Nib1 treatment group received oral gavage of the same volume of drugs, formulated with 30% PEG300, and the Nib1 group was given a dose of 10 mg/kg. Dexamethasone ointment was used as a positive treatment drug and received 70 mg smear treatment once a day. The disease progression score is evaluated on a scale of 0-4 based on three indicators, rash, peeling, and thickening (0: no symptoms; 1: mild symptoms; 2: moderate symptoms; 3: significant symptoms; 4: very significant symptoms). At the end of the experiment, the animals were sacrificed, and pathological section analysis was performed on the skin samples of the back lesions.

psoriasis model [2] = test: Clinical scoring (rash, peeling, thickening) in imiquimod-induced psoriasis model, Example 1; format: in vivo, BALB/c mice; details: for statistical significance analysis of rash scores / statistical significance analysis of skin thickening scores / statistical significance analysis of total clinical scores / statistical significance analysis of peeling scores: vs vehicle control group, t-test, Nib1 10 mg/kg oral, DEX cream 70 mg external
Procedure: as §1, §2
The clinical scoring of three indicators including skin rash, peeling and thickening were recorded and shown as statistical average value and ±standard error by day.

[3] = Animal body weight in psoriasis model, Example 2 (external application); format: in vivo, BALB/c mice; details: 70 mg external once a day for 7 days
Procedure: After adapting to the environment, female BALB/c mice were randomly divided into groups. Except for the normal control group, the rest received external treatment with imiquimod ointment (5%) to induce the establishment of a psoriasis model. Specifically, the mice were shaved off the same area (2×3 cm) of back hair and applied with 62.5 mg ointment daily for seven consecutive days. The animals received different treatments, weighed daily, received 70 mg smear treatment once, and recorded with disease progression score. The disease progression score is evaluated on a scale of 0-4 based on three indicators, rash, peeling, and thickening (0: no symptoms; 1: mild symptoms; 2: moderate symptoms; 3: significant symptoms; 4: very significant symptoms). At the end of the experiment, the animals were sacrificed, and pathological section analysis was performed on the skin samples of the back lesions.

psoriasis model [4] = test: Pathological section analysis and scoring of back lesion skin, Example 1; format: in vivo, BALB/c mice; details: Nib1 10 mg/kg oral
Procedure: as §2
The pathological sections of animal skin were stained with eosin. Three samples were selected for each group.

[5] = J Neurol Neurosurg Psychiatry 1986;49:791-795; cited from earlier work
[6] = Nib1 10 mg/kg oral once a day, vs model group

SMILES | statistical significance analysis of rash scores (psoriasis model [2]; day 1) | statistical significance analysis of skin thickening scores (psoriasis model [2]; day 1) | statistical significance analysis of total clinical scores (psoriasis model [2]; day 1) | statistical significance analysis of rash scores (psoriasis model [2]; day 2) | statistical significance analysis of total clinical scores (psoriasis model [2]; day 2) | statistical significance analysis of peeling scores (psoriasis model [2]; day 3) | statistical significance analysis of rash scores (psoriasis model [2]; day 3) | statistical significance analysis of skin thickening scores (psoriasis model [2]; day 3) | statistical significance analysis of total clinical scores (psoriasis model [2]; day 3) | statistical significance analysis of peeling scores (psoriasis model [2]; day 4) | statistical significance analysis of skin thickening scores (psoriasis model [2]; day 4) | statistical significance analysis of total clinical scores (psoriasis model [2]; day 4) | statistical significance analysis of peeling scores (psoriasis model [2]; day 5) | statistical significance analysis of skin thickening scores (psoriasis model [2]; day 5) | statistical significance analysis of total clinical scores (psoriasis model [2]; day 5) | statistical significance analysis of peeling scores (psoriasis model [2]; day 6) | statistical significance analysis of skin thickening scores (psoriasis model [2]; day 6) | statistical significance analysis of total clinical scores (psoriasis model [2]; day 6) | further results
C[C@@H]1C[C@H]2[C@@H]3CCC4=CC(=O)C=C[C@]4(C)[C@@]3(F)[C@@H](O)C[C@]2(C)[C@@]1(O)C(=O)CO [DEX, Dexamethasone] | ** (** p < 0.01) | **** (**** p < 0.0001) | **** (**** p < 0.0001) | **** (**** p < 0.0001) | **** (**** p < 0.0001) | **** (**** p < 0.0001) | **** (**** p < 0.0001) | **** (**** p < 0.0001) | **** (**** p < 0.0001) | **** (**** p < 0.0001) | **** (**** p < 0.0001) | **** (**** p < 0.0001) | **** (**** p < 0.0001) | **** (**** p < 0.0001) | **** (**** p < 0.0001) | **** (**** p < 0.0001) | **** (**** p < 0.0001) | **** (**** p < 0.0001) | body weights of the animals ([1]; Example 1, 7 days, Nib1 10 mg/kg oral, dexamethasone ointment 70 mg topical, once a day): significantly reduced; Statistical significance analysis of body weight ([1]; day 1, Nib1 10 mg/kg oral): * (* p < 0.05); Statistical significance analysis of body weight ([1]; day 4, Nib1 10 mg/kg oral): * (* p < 0.05); Statistical significance analysis of body weight ([1]; day 5, Nib1 10 mg/kg oral): ** (** p < 0.01); Statistical significance analysis of body weight ([1]; day 6, Nib1 10 mg/kg oral): **** (**** p < 0.0001); Statistical significance analysis of body weight ([1]; day 7, Nib1 10 mg/kg oral): **** (**** p < 0.0001); statistical significance analysis of skin thickening scores (psoriasis model [2]; day 2): **** (**** p < 0.0001); statistical significance analysis of rash scores (psoriasis model [2]; day 4): **** (**** p < 0.0001); statistical significance analysis of rash scores (psoriasis model [2]; day 5): **** (**** p < 0.0001); statistical significance analysis of rash scores (psoriasis model [2]; day 6): **** (**** p < 0.0001); statistical significance analysis of peeling scores (psoriasis model [2]; day 7): *** (*** p < 0.001); statistical significance analysis of rash scores (psoriasis model [2]; day 7): **** (**** p < 0.0001); statistical significance analysis of skin thickening scores (psoriasis model [2]; day 7): **** (**** p < 0.0001); statistical significance analysis of total clinical scores (psoriasis model [2]; day 7): **** (**** p < 0.0001); weight loss [3]: more than 25%
O=c1[nH]c2ccccc2n1C1CCN(CCCC(c2ccc(F)cc2)c2ccc(F)cc2)CC1 [Nib1, Pimozide] | **** (**** p < 0.0001) | ** (** p < 0.01) | **** (**** p < 0.0001) | * (* p < 0.05) | ** (** p < 0.01) | *** (*** p < 0.001) | ** (** p < 0.01) | * (* p < 0.05) | **** (**** p < 0.0001) | *** (*** p < 0.001) | *** (*** p < 0.001) | **** (**** p < 0.0001) | **** (**** p < 0.0001) | *** (*** p < 0.001) | *** (*** p < 0.001) | ** (** p < 0.01) | ** (** p < 0.01) | ** (** p < 0.01) | toxic and side effect (judged from body weight) ([1]; mouse, in vivo, po, 10 mg/kg): significantly less than that of dexamethasone; pathological section findings (epidermal hyperplasia, immune cell infiltration) (psoriasis model [4]; stained skin sections, 100x): improve epidermal hyperplasia and reduce immune cell infiltration; remission effect by pathological section score (psoriasis model [4]; scoring system of Table 2, p<0.01 vs vehicle control, one-way ANOVA): 32.5%; remission by area under the clinical total score curve (AUC) (psoriasis model [2]; Nib1 10 mg/kg oral once a day for 7 days, compared with the disease model group): 32.2%; total score of the three clinical indicators (psoriasis model [2]; Nib1 10 mg/kg oral once a day, vs disease model group, 10 mg/kg): significantly lower clinical symptoms than the disease model group; also recorded: significantly reduce the clinical symptoms of psoriasis; peeling clinical score (psoriasis model [2]; [6]): significantly reduce the peeling phenomenon; skin thickening clinical score (psoriasis model [2]; [6]): significantly reduced on the 4th, 5th, and 6th days; rash clinical score (psoriasis model [2]; Nib1 10 mg/kg oral once a day, vs model group, significantly different in the first three days): slightly reduced rash; systemic risks on long-term use [5]: has not shown systemic risks
